Activity calls are given as the source filed them. The calls are words filed in the database; no cut-off is given here.

The test system of assay [1] is Aspergillus niger. In words: Antifungal activity against Aspergillus niger ATCC 16404 at 100 ug per disc after 3 to 5 days by paper disc agar diffusion assay. The assay is classed as functional. A general note: Agar diffusion results depend on both activity and mobility in agar.
For assay [2], the system named is Klebsiella aerogenes. In words: Inhibition of FtsZ in Klebsiella aerogenes ATCC 9621 assessed as growth inhibition at 100 ug per disc after 18 to 24 hrs by paper disc agar diffusion assay.
The subject of assay [3] is Candida albicans. In words: Antifungal activity against Candida albicans ATCC 10231 at 100 ug per disc after 3 to 5 days by paper disc agar diffusion assay. The assay is classed as functional.
The subject of assay [4] is Mycolicibacterium smegmatis. In words: Inhibition of FtsZ in Mycobacterium smegmatis ATCC 607 assessed as growth inhibition at 100 ug per disc after 18 to 24 hrs by paper disc agar diffusion assay.
The test system of assay [5] is Pseudomonas aeruginosa. In words: Inhibition of FtsZ in Pseudomonas aeruginosa ATCC 9027 assessed as growth inhibition at 100 ug per disc after 18 to 24 hrs by paper disc agar diffusion assay.
In assay [6] the test system is Escherichia coli ATCC 25922. In words: Inhibition of FtsZ in Escherichia coli ATCC 25922 assessed as growth inhibition at 100 ug per disc after 18 to 24 hrs by paper disc agar diffusion assay.
Assay [7] has as its system Bacillus subtilis subsp. spizizenii ATCC 6633 = JCM 2499. In words: Inhibition of FtsZ in Bacillus subtilis ATCC 6633 assessed as growth inhibition at 100 ug per disc after 18 to 24 hrs by paper disc agar diffusion assay.
The target in assay [8] is T1, Cell division protein FtsZ (Staphylococcus aureus) (UniProt P0A031).
T1 sequence (whole entry): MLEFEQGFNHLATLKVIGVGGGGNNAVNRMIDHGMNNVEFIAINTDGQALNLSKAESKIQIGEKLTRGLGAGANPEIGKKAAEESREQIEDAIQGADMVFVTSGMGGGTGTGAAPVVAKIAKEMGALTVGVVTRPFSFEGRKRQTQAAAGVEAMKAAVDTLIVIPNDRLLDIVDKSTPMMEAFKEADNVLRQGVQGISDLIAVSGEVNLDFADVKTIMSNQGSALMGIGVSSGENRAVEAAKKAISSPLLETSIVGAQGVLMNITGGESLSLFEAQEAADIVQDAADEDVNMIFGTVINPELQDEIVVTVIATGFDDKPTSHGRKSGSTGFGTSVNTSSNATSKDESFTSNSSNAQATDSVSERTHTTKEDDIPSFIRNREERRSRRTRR
In words: Inhibition of FtsZ in Staphylococcus aureus ATCC 6538P assessed as growth inhibition at 100 ug per disc after 18 to 24 hrs by paper disc agar diffusion assay.

Assay [9] concerns Bacillus subtilis subsp. spizizenii ATCC 6633 = JCM 2499. In words: Inhibition of FtsZ in Bacillus subtilis ATCC 6633 assessed as ratio of diameter of zone inhibition of test compound to diameter of zone inhibition of tetracycline at 100 ug per disc after 18 to 24 hrs by paper disc agar diffusion assay.
Assay [10] relates to Mycolicibacterium smegmatis. In words: Inhibition of FtsZ in Mycobacterium smegmatis ATCC 607 assessed as ratio of diameter of zone inhibition of test compound to diameter of zone inhibition of streptomycin at 100 ug per disc after 18 to 24 hrs by paper disc agar diffusion assay.
The target in assay [11] is T1, Cell division protein FtsZ (Staphylococcus aureus). In words: Inhibition of FtsZ in Staphylococcus aureus ATCC 6538P assessed as ratio of diameter of zone inhibition of test compound to diameter of zone inhibition of cephaloridine at 100 ug per disc after 18 to 24 hrs by paper disc agar diffusion assay.

In the case of `NS(=O)(=O)c1c(F)ccc(OCc2nc3cc(Cl)cnc3s2)c1F`, the outcome in [1] and in assay [3] was inactive. The inhibition result in [2], in assay [4], in assay [5], in assay [6], in [7] and in assay [8] was “inactive” each time.
For `COc1ccc(OC(=O)COc2ccc(F)c(C(N)=O)c2F)cc1`, the result in assay [1] and in assay [3] was inactive. The Ratio was found to be 0.15 in [9] and 0.19 in assay [10]. Further, the inhibition entry in assay [2], in assay [5], in assay [6] and in [8] was “inactive” each time.
Consider `NC(=O)c1c(F)ccc(OCC(=O)Nc2ccccc2)c1F`, for which the outcome in assay [1] and in assay [3] was inactive. Also, the Ratio in assay [9] and in assay [11] was 0.1 throughout. In addition, the inhibition result in assay [2], in [4], in [5] and in [6] was “inactive” in each case.
Regarding `N#Cc1ccc(OCCOC(=O)COc2ccc(F)c(C(N)=O)c2F)cc1`, the outcome in assay [1] and in assay [3] was inactive. In assay [9], the Ratio was found to be 0.11. Further, the inhibition result in [2], in [4], in assay [5], in assay [6] and in assay [8] was “inactive” in each case.
Regarding `NC(=O)c1c(F)ccc(OCC(=O)OCCOc2ccc(Br)cc2)c1F`, the outcome in assay [1] and in assay [3] was inactive. Moreover, the Ratio turned out to be 0.15 in assay [9] and 0.22 in [11]. Also, the inhibition entry in assay [2], in assay [4], in assay [5] and in assay [6] was “inactive” each time.
As to `Cc1ccc(OC(=O)COc2ccc(F)c(C(N)=O)c2F)cc1`, the result in assay [1] and in [3] was inactive. Moreover, the Ratio in assay [9] amounted to 0.3; in [10] it was 0.07; in [11], 0.25. Besides, the inhibition entry in assay [2], in assay [5] and in assay [6] was “inactive” each time.
As for `NS(=O)(=O)c1c(F)ccc(OCc2nc3cc(Cl)ccc3s2)c1F`, the outcome in assay [1] and in assay [3] was inactive. Also, the inhibition result in assay [2], in assay [4], in assay [5], in assay [6], in assay [7] and in assay [8] was “inactive” in each case.
For the compound `Cc1ccc2cccc(OCCCOc3ccc(F)c(C(N)=O)c3F)c2n1`, the outcome in assay [1] and in [3] was inactive. Moreover, the inhibition entry in assay [2], in [4], in assay [5], in [6], in [7] and in [8] was “inactive” throughout.
Regarding `Cc1ccc(OCCOC(=O)COc2ccc(F)c(C(N)=O)c2F)cc1`, the result in assay [1] and in assay [3] was inactive. For the same compound, the Ratio in assay [9] worked out at 0.25; in assay [11] it was 0.1. Moreover, the inhibition entry in [2], in [4], in assay [5] and in assay [6] was “inactive” throughout.
For `NC(=O)c1c(F)ccc(OCCCOc2cccc3ccccc23)c1F`, the result in [1] and in assay [3] was inactive. Also, the inhibition result in [2], in assay [4], in assay [5], in [6], in [7] and in assay [8] was “inactive” each time.
Take `NC(=O)c1c(F)ccc(OCCCOc2c(Cl)cc(Cl)c3cccnc23)c1F`: the result in [1] and in assay [3] was inactive. Also, the Ratio in [9] came to 0.1; in assay [10], 0.2; in [11], 0.18. For the same compound, the inhibition entry in [2], in assay [5] and in [6] was “inactive” each time.
Turning to `NC(=O)c1c(F)ccc(OCC(=O)OCCOc2ccc(F)cc2)c1F`, the outcome in assay [1] and in [3] was inactive. Besides, the Ratio came to 0.18 in [9], 0.62 in assay [10] and 0.44 in assay [11]. For the same compound, the inhibition entry in assay [2], in [5] and in [6] was “inactive” in each case.
For the compound `NC(=O)c1c(F)ccc(OCC(=O)OCCOc2ccccc2)c1F`, the outcome in [1] and in [3] was inactive. Further, the Ratio in [9] is 0.18; in assay [10], 0.36; in [11], 0.18. In addition, the inhibition result in [2], in assay [5] and in assay [6] was “inactive” throughout.
`NC(=O)c1c(F)ccc(OCCCOc2ccc3ccccc3c2)c1F`: the outcome in assay [1] and in assay [3] was inactive. Also, the inhibition entry in assay [2], in assay [4], in assay [5], in [6], in assay [7] and in assay [8] was “inactive” throughout.
On to `NC(=O)c1c(F)ccc(OCCCOc2ccc(Cl)c3cccnc23)c1F`, for which the result in [1] and in [3] was inactive. In addition, the Ratio came to 0.1 in assay [9] and 0.25 in assay [11]. The inhibition entry in assay [2], in assay [4], in [5] and in assay [6] was “inactive” each time.
As for `NC(=O)c1c(F)ccc(OCC(=O)Oc2ccccc2)c1F`, the result in assay [1] and in assay [3] was inactive. The Ratio is 0.19 in [9], 0.5 in assay [10] and 0.07 in [11]. Further, the inhibition entry in assay [2], in assay [5] and in assay [6] was “inactive” in each case.
Turning to `NC(=O)c1c(F)ccc(OCCC(=O)Oc2ccccc2)c1F`, the outcome in assay [1] and in assay [3] was inactive. Also, the Ratio is 0.3 in assay [9] and 0.41 in assay [11]. For the same compound, the inhibition result in assay [2], in assay [5] and in assay [6] was “inactive” each time.
In the case of `NC(=O)c1c(F)ccc(OCCCOc2cccc3cccnc23)c1F`, the result in assay [1] and in assay [3] was inactive. In addition, the inhibition entry in assay [2], in assay [4], in assay [5], in assay [6] and in assay [7] was “inactive” in each case. Besides, the Ratio in assay [11] was found to be 0.07.
Turning to `NC(=O)c1c(F)ccc(OCc2nc3cc(Cl)cnc3s2)c1F`, the inhibition result in assay [4] and in assay [7] was “inactive” throughout. Also, the Ratio in assay [11] worked out at 1.2.
As for `NC(=O)c1c(F)ccc(OCC(=O)OCc2ccccc2)c1F`, the result in assay [1] and in [3] was inactive. In addition, in [9], the Ratio came out at 0.18. Also, the inhibition result in assay [2], in assay [4], in assay [5], in assay [6] and in [8] was “inactive” throughout.

The values above are taken from ChEMBL document CHEMBL4007481, “Synthesis and antibacterial activity of 3-benzylamide derivatives as FtsZ inhibitors” (Bioorg Med Chem Lett, 2017).
